Results as given in PubChem BioAssay AID849 (SRMLSC, 2007).
Activity calls are given as the source filed them. No rule for the calls is given here.

The compounds below were run on Saccharomyces cerevisiae lifespan shortening, growth inhibition (assay: yeast lifespan shortening compounds, dose response (AID 849);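 also: yeast growth read as optical density after two days at 30 degrees C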).

Row | Structure (SMILES) | IC50
1 | O=C(C1=C(O)/C(=C/c2ccc(O)cc2)CCC1)C(F)(F)F | > 100 µM (inactive)
2 | O=c1cccc2n1Cc1cc3ccccc3nc1-2 | 29.8 µM
3 | COc1ccc(-n2c(Cc3cccn3C)nnc2SCC(=O)N2CCCC2)cc1 | > 100 µM (inactive)
4 | O=C(/C=C/c1ccccc1)c1cc(Br)ccc(=O)c1O | 10.1 µM
5 | CCN1CCN(c2ncnc3c2sc(=S)n3-c2ccccc2)CC1 | > 100 µM (inactive)
6 | O=C(Nc1cccc(N=Cc2cc(Cl)cc(Br)c2O)c1)c1ccco1 | > 100 µM (inactive)
7 | Cc1nn(-c2ccccc2)c2sc(-c3n[nH]c(=S)o3)cc12 | > 100 µM (inactive)
8 | Cc1ccc(C(=O)Oc2ccc(Cl)c3cccnc23)cc1[N+](=O)[O-] | 47.4 µM
9 | C(=N\c1ncnc2sccc12)/NOCc1ccccc1 | 23.2 µM
10 | Cc1ccc(-c2[nH]nc(N)c2N=Nc2ccccc2C)cc1 | > 100 µM (inactive)
11 | COc1ccc(C(=O)/C=C/Nc2ccc(C)cn2)cc1OC | > 100 µM (inactive)
12 | CCCC1COC(Cn2cncn2)(c2ccc(Cl)cc2Cl)O1 (stereo not given) | 0.274 µM
13 | OC(Cn1cncn1)(c1ccccc1)c1ccccc1 | 13.9 µM
14 | CCOc1ccc(NCc2nc3ccccc3n2CCOc2ccccc2)cc1 | > 100 µM (inactive)
15 | COCC(C)OC(=O)/C(C#N)=C\c1coc2ccc(C)cc2c1=O (stereo not given) | > 100 µM (inactive)
16 | Cc1ccccc1C(=O)NNC(=S)NC(=O)COc1ccccc1 | 46.3 µM
17 | CC(C)(C)c1cc(NCCCn2ccnc2)n2ncc(-c3ccc(Cl)cc3)c2n1 | > 100 µM (inactive)
18 | COc1ccc(OC)c(C2CC(=O)N3CN(c4cccc(Cl)c4)CSC3=C2C#N)c1 (stereo not given) | > 100 µM (inactive)
19 | O=C(O)c1cc2c(s1)-c1ccccc1CC2 | 30.5 µM
20 | Cc1cccc(NC(=O)CC2SC(=O)N(c3ccccc3)C2=O)c1 (stereo not given) | > 100 µM (inactive)
21 | C=CCn1cnc2c(c1=O)c1nc3ccccc3nc1n2/N=C/c1cc(OC)c(OC)c(OC)c1 | 37.4 µM
22 | CC(Oc1ccc(Cl)cc1Cl)C(=O)NC1=NN(c2ccccc2)C(=O)C1 (stereo not given) | 9.36 µM
23 | O=C(CC(=O)c1cc(Cl)ccc1O)c1ccccc1 | > 100 µM (inactive)

Row | Structure (SMILES) | IC50
24 | Cc1cc(C)cc(NS(=O)(=O)c2cnc(Cl)c(Cl)c2)c1 | 47.5 µM
25 | COc1ccccc1OCC(=O)n1cc(C(=O)c2cc(Cl)cc(Cl)c2O)cn1 | 5.95 µM
26 | Fc1ccc2nc3[nH]c4ccccc4c3nc2c1 | 39.9 µM
27 | Cc1ccc(-c2cc(-c3ccccc3Cl)[nH]n2)c(O)c1 | 51.1 µM
28 | COc1cc(/C=C2\C(=O)ON=C2c2ccccc2)cc(OC)c1OC | 18.5 µM
29 | CCN1/C(=C/c2ccc3cccc(C)c3[n+]2CC)Sc2ccccc21 | 9.8 µM
30 | O=C1c2cccc3cccc(c23)C(=O)N1c1cccnc1 | 29.5 µM
31 | CCCCCCCCCCCCCCCC(O)C(N)CO (stereo not given) | 33.4 µM
32 | Cc1ccc(NC(=O)CSC2=C(C#N)C(c3ccc4c(c3)OCO4)C3=C(CCCC3=O)N2)c(C)c1 (stereo not given) | > 100 µM (inactive)
33 | O=C(c1c[nH]c(C(=O)C(Cl)(Cl)Cl)c1)c1ccccc1Cl | > 100 µM (inactive)
34 | CC(C)N=c1scc(-c2cccs2)n1/N=C/c1ccc(O)c(O)c1O | > 100 µM (inactive)
35 | CC(C)(C)c1ccc(C(=O)NC(=S)NNC(=O)c2cccs2)cc1 | 42.2 µM
36 | O=C(Oc1ccc(Cl)c2cccnc12)c1ccco1 | 14.6 µM
37 | Oc1ccc(-c2csc(-c3ccccc3)n2)cc1O | 27.5 µM
38 | NC(N)=N/N=C/c1ccc(OCc2ccc(Cl)cc2)cc1 | 48.4 µM
39 | COc1cc(OC)c(C2CC(=O)N3CN(C)CSC3=C2C#N)cc1OC (stereo not given) | > 100 µM (inactive)
40 | CCCCOC(=O)Sc1nc2ccccc2o1 | 16 µM
41 | O=C(c1cc(-c2ccccc2O)on1)N1CCc2ccccc2C1 | > 100 µM (inactive)
42 | CCN1/C(=C(\O)c2ccccc2)C(=O)c2ccccc2S1(=O)=O | > 100 µM (inactive)
43 | CCCCn1c(/N=C/c2c[nH]c3ccccc23)nc2ccccc21 | > 100 µM (inactive)
44 | COC(=O)CSC1=NS(=O)(=O)c2ccccc21 | > 100 µM (inactive)
45 | Cc1ccc(C(=O)O)cc1N=Cc1cc(Br)cc(Br)c1O | 37.4 µM
46 | C=C(C)COc1ccc(-c2[nH]ncc2Oc2ccccc2OC)c(O)c1 | > 100 µM (inactive)

Row | Structure (SMILES) | IC50
47 | CCCCCCCCC/C(=N\O)c1ccccn1 | 4.51 µM
48 | Cc1ccc(/C=C2\C(=O)Nc3ccccc32)o1 | > 100 µM (inactive)
49 | Cn1c(SCC(=O)N/N=C/c2ccc([N+](=O)[O-])s2)nnc1-c1ccc(Cl)cc1 | 25.3 µM
50 | Cc1cccc(OCCn2cc(/C=N/NC(=O)c3ccncc3)c3ccccc32)c1 | > 100 µM (inactive)
51 | C/C(O)=c1/ccc2cccc3nc(C)nc1c23 | 17.6 µM
52 | O=[N+]([O-])c1cc(CN2CCCC2)c2cccnc2c1O | > 100 µM (inactive)
53 | O=C1CN(CC(=O)N2CCCCC2)c2ccccc2O1 | 43.3 µM
54 | Cc1ccc(C(=O)c2c(C)oc3c2C(=O)C(=O)c2ccccc2-3)cc1 | 48.1 µM
55 | N#CCSc1nc2ccccc2c2nc3ccccc3n12 | 29.3 µM
56 | Cc1ccc(O)c(C(=O)CC(=O)c2cccc(F)c2)c1 | > 100 µM (inactive)
57 | CN1CCN(C2=Cc3ccc(Cl)cc3Sc3ccc(F)cc32)CC1 | 30 µM
58 | CCCc1ccc(Oc2c(-c3ccc(O)c(C)c3O)n[nH]c2C)cc1 | 7.01 µM
59 | Oc1ccc2ccccc2c1N=Nc1ccccn1 | 35.2 µM
60 | Cc1ccc2c(c1)c1c(n2C)-c2[nH]ncc2CC1 | 35.3 µM
61 | OC(COc1ccc2ccccc2c1Br)Cn1cnc(-c2ccccc2)c1 (stereo not given) | 49.3 µM
62 | CC(C)N=c1scc(-c2ccco2)n1/N=C/c1ccc(O)c(O)c1 | 49.1 µM
63 | CCCCCCCCCCCCCCCC[n+]1ccc(/C=N/O)cc1 | 1.54 µM
64 | O=C(COc1ccccc1)NNC(=S)NC(=O)c1ccc(Cl)cc1Cl | 31.6 µM
65 | CCOC(=O)c1c(N)sc(C(O)(C(F)(F)F)C(F)(F)F)c1-c1ccc(F)cc1 | > 100 µM (inactive)
66 | COc1ccccc1NC(=O)Cc1noc(CSc2cccc[n+]2[O-])n1 | 23.2 µM
67 | CC1/C(=N/O)CC(c2ccccc2)N(C)C1c1ccccc1 (stereo not given) | > 100 µM (inactive)
68 | CN1C(=O)C(O)(CC(=O)c2ccccc2O)c2cc(Br)ccc21 (stereo not given) | > 100 µM (inactive)
69 | Cn1c2ccccc2c2cc(C(=O)O)ccc21 | 25.4 µM

Row | Structure (SMILES) | IC50
70 | CCSc1nnc(NC(=O)c2ccccn2)s1 | 9.84 µM
71 | O=C1CCCC/C1=N\Nc1ccc(OCc2ccccc2)cc1 | 13.3 µM
72 | CCOc1cc(/C=N/Nc2ccccc2Cl)ccc1OCC(=O)O | 11.6 µM
73 | O=C1ON=C(c2ccccc2)/C1=C/c1ccc(OS(=O)(=O)c2ccccc2)cc1 | 18.9 µM
74 | c1ccc(Cc2nnc3sc(-c4ccc5c(c4)OCCO5)nn23)cc1 | > 100 µM (inactive)
75 | C=CCNC(=S)N/N=C(\C)c1ccccn1 | 17.6 µM
76 | Cc1cc2sc(C(=O)O)c(C)c2s1 | 41.6 µM
77 | CCOC(=O)c1c(NC(=O)C(C)Sc2cccc[n+]2[O-])sc2c1CCN(Cc1ccccc1)C2 (stereo not given) | 12.4 µM
78 | Oc1c(Cl)cc(Cl)cc1Sc1cc(Cl)cc(Cl)c1O | 25.4 µM
79 | Cc1cc(Cl)ccc1N=c1ssnc1Cl | > 100 µM (inactive)
80 | O=[N+]([O-])c1ccc(C2Oc3ccccc3C3CC(c4ccccc4)=NN32)s1 (stereo not given) | > 100 µM (inactive)
81 | N#C/C(=C\c1ccc([N+](=O)[O-])o1)c1nc2ccccc2[nH]1 | > 100 µM (inactive)
82 | CCCCn1c(=O)c(C(=O)NCc2ccncc2)c(O)c2ccccc21 | > 100 µM (inactive)
83 | Cc1cc([N+](=O)[O-])ccc1-c1ccc(C2Nc3ccccc3C(=O)N2O)o1 (stereo not given) | > 100 µM (inactive)
84 | O=C(ONC1=NCCCCC1)c1ccc(Cl)cc1 | 6.15 µM
85 | COc1ccc(-c2n[nH]c(C)c2-c2ccc(Cl)cc2)c(O)c1 | 33.4 µM
86 | N/C(=N\OC(=O)c1ccc(Cl)cc1Cl)c1ccccc1 | > 100 µM (inactive)
87 | O=C1c2ccccc2C(=O)N1Cc1ccco1 | > 100 µM (inactive)
88 | CCc1cccc(CC)c1NC(=S)NCc1ccc2[nH]c(C)cc2c1 | > 100 µM (inactive)
89 | CCCCS(=O)(=O)/C=C\C=C/S(=O)(=O)CCCC | > 100 µM (inactive)
90 | CCOC(=O)c1cnc(-n2nc(C)cc2C)nc1NC1CCCCC1 | 20 µM
91 | Cc1ccc(-n2c(Cl)c(Cl)nc(Cl)c2=O)cc1 | 14.6 µM
92 | O=c1c2c([N+](=O)[O-])cc([N+](=O)[O-])cc2sn1-c1ccc(Br)cc1 | > 100 µM (inactive)

Row | Structure (SMILES) | IC50
93 | Cc1cc(O)c(/C=N/Nc2cccc(Cl)c2)c(=O)o1 | 40.3 µM
94 | Nc1nc2sc3c(c2c(=O)s1)CCCC3 | > 100 µM (inactive)
95 | CCOC(=O)c1c(/N=C/c2cc([N+](=O)[O-])ccc2O)sc(C)c1C | 47.1 µM
96 | O=S(=O)(Cc1ccccc1)NCc1cccnc1 | > 100 µM (inactive)
97 | Oc1ccc(/C=N/N=C(c2ccccc2)c2ccccc2)c(O)c1O | 23.7 µM
98 | CC(C)(C)C(O)C(Oc1ccc(Cl)cc1)n1cncn1 (stereo not given) | 3.14 µM
99 | Cc1cc(C(=O)COC(=O)c2ccc[nH]c2=O)c(C)n1-c1ccc(F)cc1 | 43 µM
100 | Cc1ccc(S(=O)(=O)Nc2ccc(SC(F)F)cc2)c(C)c1 | > 100 µM (inactive)
101 | CC(C)(Oc1ccc(Cl)cc1)C(=O)NC1=NN(c2ccccc2)C(=O)C1 | 18.2 µM
102 | c1ccc(-c2nnc(-c3ccccn3)nc2NC2CCCCC2)cc1 | 12.5 µM
103 | Cc1cc(C(=O)N/N=C/c2cccc([N+](=O)[O-])c2O)n[nH]1 | > 100 µM (inactive)
104 | O=S(=O)(Nc1ccc(-n2cccc2)cc1)c1ccc(Cl)cc1Cl | > 100 µM (inactive)
105 | CC1CCCC2(C1)NC(=S)c1c(sc3c1CCCC3)N2 (stereo not given) | > 100 µM (inactive)
106 | CCc1cc(-c2n[nH]c(C)c2Oc2ccc(C(C)C)cc2)c(O)cc1O | 31.4 µM
107 | O=c1cc(C(F)(F)F)[nH]c2c(C(F)(F)F)cccc12 | 9.03 µM
108 | CS(=O)(=O)N1CCN(C(=O)c2ccccc2F)CC1 | > 100 µM (inactive)
109 | c1ccc(-c2ccc(C(c3ccccc3)n3ccnc3)cc2)cc1 (stereo not given) | 1.67 µM
110 | CCCCOC(=O)n1c(=S)oc2cc(Cl)ccc21 | 16.5 µM
111 | CCSc1nc2ccccc2n1S(=O)(=O)c1ccccc1 | > 100 µM (inactive)
112 | COC(=O)Cn1c2ccccc2c2nc(C)sc21 | > 100 µM (inactive)
113 | Cc1ccc(-c2nc3sc(C(N)=O)c(N)c3c3c2CCCC3)cc1 | > 100 µM (inactive)
114 | CCCCCC/C(=N/O)c1ccccn1 | 10.3 µM
115 | Cc1nn(-c2ccc(F)cc2)c2sc(C(=O)O)cc12 | 30.9 µM
